pKi: −log10 of the molar value.
Tests used:
[1] = target: T1, M1 -receptors of the cortex (Rattus norvegicus, UniProt P08482); test: Receptor binding test, [3H]pirenzepine, cerebral cortex (M1); parameters: species or system Male Wistar rats; conditions: in vitro, 1 nM [3H]pirenzepine, 90 minutes
T1 construct: The cerebral cortex, heart and salivary glands were removed, washed and homogenised; from tissue; host or cells: rat cerebral cortex homogenate (Wistar, Chbb: THOM)
T1 sequence (P08482 1-460): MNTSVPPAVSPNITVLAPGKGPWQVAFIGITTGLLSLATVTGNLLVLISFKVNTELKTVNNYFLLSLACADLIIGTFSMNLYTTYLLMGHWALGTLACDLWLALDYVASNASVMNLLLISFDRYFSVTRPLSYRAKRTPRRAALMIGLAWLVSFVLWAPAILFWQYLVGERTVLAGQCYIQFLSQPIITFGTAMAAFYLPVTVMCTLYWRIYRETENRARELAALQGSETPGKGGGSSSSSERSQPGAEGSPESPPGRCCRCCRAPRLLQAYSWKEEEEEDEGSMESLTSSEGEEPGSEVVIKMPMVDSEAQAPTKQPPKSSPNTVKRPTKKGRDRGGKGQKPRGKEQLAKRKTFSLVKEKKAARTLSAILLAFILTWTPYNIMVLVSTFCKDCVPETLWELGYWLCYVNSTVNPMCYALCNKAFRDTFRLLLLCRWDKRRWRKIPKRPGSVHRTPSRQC

[2] = target: T2, M2 (Heart) muscarinic receptors (Rattus norvegicus, UniProt P10980); test: Receptor binding test, [3H]NMS, heart (M2); parameters: species or system Male Wistar rats; conditions: for pKi: in vitro, rat heart, 0.3 nM [3H]NMS, 40 minutes; for Selectivity ratio (M1 /M2): ratio of Ki M1 (cortex) to Ki M2 (heart)
T2 construct: The cerebral cortex, heart and salivary glands were removed, washed and homogenised; from tissue; host or cells: rat heart homogenate (Wistar, Chbb: THOM)
T2 sequence (P10980 1-466): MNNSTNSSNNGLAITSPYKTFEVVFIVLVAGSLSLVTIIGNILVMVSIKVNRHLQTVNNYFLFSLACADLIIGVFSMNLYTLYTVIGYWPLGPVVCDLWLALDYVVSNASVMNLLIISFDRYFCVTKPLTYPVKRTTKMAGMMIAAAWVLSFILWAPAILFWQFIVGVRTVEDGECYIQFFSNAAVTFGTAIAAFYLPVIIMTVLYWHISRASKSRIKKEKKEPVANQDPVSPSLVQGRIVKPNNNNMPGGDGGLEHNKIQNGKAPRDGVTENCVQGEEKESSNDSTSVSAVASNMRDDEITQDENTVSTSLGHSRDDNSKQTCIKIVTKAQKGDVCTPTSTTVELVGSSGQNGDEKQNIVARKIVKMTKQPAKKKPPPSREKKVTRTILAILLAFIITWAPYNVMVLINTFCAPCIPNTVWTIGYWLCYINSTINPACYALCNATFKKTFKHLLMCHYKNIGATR

[3] = target: T3, M3 (Submandibular gland) muscarinic receptors (Rattus norvegicus, UniProt P08483); test: Receptor binding test, [3H]NMS, salivary (submandibular) gland (M3); parameters: species or system Male Wistar rats; conditions: in vitro, 0.3 nM [3H]NMS, 40 minutes
T3 construct: The cerebral cortex, heart and salivary glands were removed, washed and homogenised; from tissue; host or cells: rat salivary (submandibular) gland homogenate (Wistar, Chbb: THOM)
T3 sequence (P08483 whole entry): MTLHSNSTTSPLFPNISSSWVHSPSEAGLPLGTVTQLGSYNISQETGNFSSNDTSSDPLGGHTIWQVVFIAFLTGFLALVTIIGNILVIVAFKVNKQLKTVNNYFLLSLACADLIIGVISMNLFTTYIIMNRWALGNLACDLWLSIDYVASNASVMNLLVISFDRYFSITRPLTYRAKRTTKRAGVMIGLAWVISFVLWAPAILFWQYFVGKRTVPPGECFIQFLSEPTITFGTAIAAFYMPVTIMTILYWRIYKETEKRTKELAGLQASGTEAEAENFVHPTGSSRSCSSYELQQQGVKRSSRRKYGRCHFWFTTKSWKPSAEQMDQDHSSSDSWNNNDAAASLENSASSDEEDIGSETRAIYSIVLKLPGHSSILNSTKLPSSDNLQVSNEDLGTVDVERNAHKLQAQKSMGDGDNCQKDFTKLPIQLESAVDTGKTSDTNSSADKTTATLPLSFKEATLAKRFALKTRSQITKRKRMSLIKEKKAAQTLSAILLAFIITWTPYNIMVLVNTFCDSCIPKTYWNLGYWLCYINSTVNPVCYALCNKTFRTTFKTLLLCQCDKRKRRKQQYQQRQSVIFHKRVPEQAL

[4] = test system: learning-impaired old rats; test: Effect on the memory in the Morris water maze, learning-impaired 24 months old rats; assay type: in vivo, rat; conditions: 0.2 mg/kg s.c.
Description: The tests were carried out using the water maze described by R. G. M. Morris in Learn Motive 12:239-249 (1981) using the test method described therein.
On the first day, rats which were 24 months old and therefore learning-impaired (n=7 per group) were given 0.2 mg/kg of compound D by subcutaneous route whilst another group of these animals were given physiological saline solution (s.c.).

[5] = test system: arecoline-induced increase in blood pressure; test: Arecoline test: CNS-penetration, in vivo (rat), reduction in the arecoline-induced increase in blood pressure; conditions: i.v.
Description: Cerebroavailable antimuscarinics block this central effect. […] The trachea is incubated, the animals are respirated with an air/oxygen mixture (80 breaths per minute). The blood pressure is recorded after canulation of the carotid artery by means of a pressure recorder (Bell and Howell Type 4-327-I). The test substances are administered through the jugular vein ([…]). […] The arecoline is administered (in doses of 0.3 mg/kg) at 15 minute intervals. After 2 comparison values, the test substance is injected in increasing doses 5 minutes before the next administration of arecoline. The results obtained were compared with the average starting values and determined as the percentage inhibition.

[6] = test system: learning ability and memory performance; conditions: Hunter et al., Sutherland et al., Wishaw; cited from earlier work

Row | Selectivity ratio (M1 /M2) [2] | Compound | other results
1 |  | CCN(CC)CC1CCCCN1CC(=O)N1c2cc(Cl)ccc2C(=O)Nc2cccnc21 (racemic) [Substance K, (±)-9-chloro-11-[[2-[(diethylamino)methyl]-1-piperidinyl]-acetyl]-5,11-dihydro-6H-pyrido[2,3-b]-[1,4]benzodiazepin-6-one] | pKi [1]: 6.90; pKi [2]: 7.60; pKi [3]: 6.12
2 | 20 | CCN(CCCC1CCN(CC(=O)N2c3ccccc3C(=O)Nc3cccnc32)CC1)C(=O)C(C)(C)CC [Substance A, 5,11-dihydro-11-[[4-[3-[(2,2-dimethyl-1-oxobutyl]-ethylamino]-propyl]-1-piperidinyl]acetyl]-6H-pyrido[2,3-b][1,4]benzodiazepin-6-one] | 
3 | 10 | CCCC(C)(C)C(=O)N(CC)CCCC1CCN(CC(=O)N2c3ccccc3C(=O)Nc3cccnc32)CC1 [Substance B, 5,11-dihydro-[[4-[3-[(2,2-dimethyl-1-oxopentyl)-ethylamino]-propyl]-1-piperidinyl]acetyl]-6H-pyrido[2,3-b][1,4]benzodiazepin-6-one] | 
4 | 13 | CCCC(C)(C)C(=O)N(CC)CCCCC1CCN(CC(=O)N2c3ccccc3C(=O)Nc3cccnc32)CC1 [Substance C, 5,11-dihydro-11-[[4-[4-[(2,2-dimethyl-1-oxopentyl)-ethylamino]butyl]-1-piperidinyl]acetyl]-6H-pyrido[2,3-b][1,4]benzodiazepin-6-one] | 
5 | 35 | CCCC(C)(C)C(=O)N(CC)CCCC1CCN(CC(=O)N2c3ccc(Cl)cc3C(=O)Nc3cccnc32)CC1 [Substance D, 5,11-dihydro-8-chloro-11-[[4-[3-[(2,2-dimethyl-1-oxopentyl)-ethylamino]propyl]-1-piperidinyl]-acetyl]-6H-pyrido[2,3-b][1,4]benzodiazepin-6-one] | memory performance versus young control rats ([4]; fourth day, 24 months old rats, n=7): reached the same level as the control groups of young rats; memory performance compared with saline-treated learning-impaired old rats ([4]; observed 4 days, FIG. 1): improved memory performance; reduction of latency period in Morris water maze ([4]; second day, 24 months old rats, n=7): approximately 50%
6 | 10 | CCN(CCCC1CCN(CC(=O)N2c3ccc(C)cc3C(=O)Nc3cccnc32)CC1)C(=O)C(C)(C)C [Substance E, 5,11-dihydro-8-methyl-11-[[4-[3-[(2,2-dimethyl-1-oxopropyl)-ethylamino]propyl]-1-piperidinyl]acetyl]-6H-pyrido[2,3-b][,1,4]benzodiazepin-6-one] | 
7 | 14 | CCN(CCCC1CCN(CC(=O)N2c3ccccc3C(=O)Nc3cccnc32)CC1)C(=O)C(C)(C)C [Substance F, 5,11-dihydro-11-[[4-[3-[(2,2-dimethyl-1-oxopropyl)-ethylamino]propyl]-1-piperidinyl]acetyl]-6H-pyrido[2,3-b][1,4]benzodiazepin-6-one] | 
8 | 24 | CCN(CCCC1CCN(CC(=O)N2c3ccc(C)cc3C(=O)Nc3cccnc32)CC1)C(=O)C(C)(C)CC [Substance G, 5,11-dihydro-8-methyl-11-[[4-[3-[(2,2-dimethyl-1-oxobutyl)ethylamino]propyl]-1-piperidinyl]acetyl]-6H-pyrido[2,3-b][1,4]benzodiazepin-6-one] | 
9 |  | CCN(CC)CC1CCCCN1CC(=O)N1c2ccccc2C(=O)Nc2cccnc21 (centres unmarked) [Substance H, 11-[[2-[(diethylamino)methyl]-1-piperidinyl]acetyl]-5,11-dihydro-6H-pyrido[2,3-b][1,4]benzodiazepin-6-one] | pKi [1]: 6.30; pKi [2]: 7.10
10 | 6.6 | O=C1Nc2cccnc2N(C(=O)CCC#CCN2CCCCC2)c2ccccc21 [Substance J, 5,11-dihydro-11-[1-oxo-6-(1-piperidinyl)-4-hexyn-1-yl]-6H-pyrido[2,3-b][1,4]benzodiazepin-6-one] | 
11 |  | CCCN(CCC)CC1CCCCN1CCNC(=O)N1c2ccccc2C(=O)Nc2cccnc21.CS(=O)(=O)O (centres unmarked) [Substance L, 5,11-dihydro-11-[[[2-[2-[(dipropylamino)methyl]-1-piperidinyl]ethyl]amino]carbonyl]-6H-pyrido[2,3-b]-[1,4]benzodiazepin-6-one methanesulphonate] | effect on arecoline-mediated central effects / increase in blood pressure (in words) [5]: had no effect on the increase in blood pressure caused by arecoline
12 | 6.5 | O=C1Nc2cccnc2N(C(=O)N2CCCC(CCCN3CCCCC3)C2)c2ccccc21 (centres unmarked) [Substance M, 5,11-dihydro-11-[[3-[3-(1-piperidinyl)-1-propyl]-1-piperidinyl]carbonyl]-6H-pyrido[2,3-b][1,4]benzo-diazepin-6-one] | 
13 | 4.6 | Cc1scc2c1N(C(=O)CCC#CCN1CCCCCC1)c1ccccc1NC2=O [Substance P, 4,9-dihydro-3-methyl-4-[6-(hexahydro-1H-1-azepinyl)-1-oxo-4-hexyn-1-yl]-10H-thieno[3,4-b][1,5]benzodi-azepin-10-one] | 
14 | 2.5 | CCN(CC)CC1COCCN1CCCC(=O)N1c2ccccc2C(=O)Nc2cccnc21 (centres unmarked) [Substance Q, 11-[4-[3-[(diethylamino)methyl]-4-morpholinyl]-1-oxo-1-butyl]-5,11-dihydro-6H-pyrido[2,3-b][1,4]-benzodiazepin-6-one] | 
15 | 2.4 | CN(CCC1CCCN1C)CC(=O)N1c2ccccc2C(=O)Nc2cccnc21 (centres unmarked) [Substance R, 5,11-dihydro-11-[[[2-(1-methyl-2-pyrrolidinyl)-ethyl]-methylamino]acetyl]-6H-pyrido[2,3-b][1,4]-benzodiazepin-6-one] | 
16 | 5.3 | CN(CCC1CCCCCN1C)CC(=O)N1c2ccccc2C(=O)Nc2cccnc21 (centres unmarked) [Substance S, 5,11-dihydro-11-[[[2-(1-methyl-hexahydro-1H-2-azepinyl)-ethyl]methylamino]acetyl]-6H-pyrido[2,3-b][1,4]benzodiazepin-6-one] | 
17 |  | CN1CCN(CC(=O)N2c3ccccc3C(=O)Nc3cccnc32)CC1 [pirenzepine] | learning ability and memory performance (literature) [6]: deterioration in learning ability and memory performance
